Structures can show the parent of a compound that is named as a salt. Numbered stars: 1 amine (or outer) side, 2 acyl side, 3 side chain; on linkers, the order of the positions; unused ones are H or OH. Bridge positions count the residues as written; N and C are the ends. Square brackets hold non-standard residues; d marks the D form. Peptide text beside a SMILES is read from it. * marks the point of attachment. pTerphenylCO(4''-OnC5H11) = CCCCCOc1ccc(-c2ccc(-c3ccc(C(=O)*)cc3)cc2)cc1; Orn(4R-OH,5R-OH) = O=C([C@H](C[C@@H](O)[C@@H](O)N[*:3])N[*:1])[*:2]; Tetradecanoyl(10R,12S-Me2) = CC[C@H](C)C[C@H](C)CCCCCCCCC(=O)*; hTyr(3S-OH,4S-OH) = N[C@H](C(=O)O)[C@H](O)[C@@H](O)c1ccc(O)cc1; Pro(3S-OH,4S-Me) = C[C@H]1CN[C@H](C(=O)O)[C@H]1O; Gln(3R-OH) = NC(=O)C[C@@H](O)[C@H](N)C(=O)O; Pro(3S-OH) = O=C(O)[C@H]1NCC[C@@H]1O; Hyp = O=C(O)[C@@H]1C[C@@H](O)CN1
These molecules were tested against binding of recombinant, trimeric SARS-CoV-2 spike protein to recombinant human ACE2 (Severe acute respiratory syndrome coronavirus 2, UniProt P0DTC2, K986P/R682G/R683S/R685S/V987P) (assay: biochemical). Details: not given.
Set-up: species or system SARS-CoV-2 / human

Compared with `NC1CCN(c2nc3c(cc2F)c(=O)c(C(=O)O)cn3-c2ccc(F)cc2F)C1` (stereo not drawn) [Tosufloxacin (P-Toluenesulfonic Acid), Tosufloxacin], `COC(=O)N[C@H](C(=O)N1CCC[C@H]1c1nc(-c2ccc(-c3ccc(-c4c[nH]c([C@@H]5CCCN5C(=O)[C@@H](NC(=O)OC)C(C)C)n4)cc3)cc2)c[nH]1)C(C)C` [Daclatasvir] is higher in “% Inhibition” value: 97% for the first, 99% for the second.

Going from `CO[C@H]1C(=O)[C@]2(C)[C@@H](OC)C[C@H]3OC[C@@]3(OC(C)=O)[C@H]2[C@H](OC(=O)c2ccccc2)[C@]2(O)C[C@H](OC(=O)[C@H](O)[C@@H](NC(=O)OC(C)(C)C)c3ccccc3)C(C)=C1C2(C)C` [Cabazitaxel] to `N#Cc1ccc2[nH]cc(CCCCN3CCN(c4ccc5oc(C(N)=O)cc5c4)CC3)c2c1` [Vilazodone HCl], the “% Inhibition” value rises from 86% to 99%.

Compared with `COc1cc2nccc(Oc3ccc(NC(=O)NC4CC4)c(Cl)c3)c2cc1C(N)=O` [Lenvatinib Mesylate], `COC[C@H]1C[C@@H](c2nc(-c3ccc4c(c3)COc3cc5c(ccc6nc([C@@H]7CC[C@H](C)N7C(=O)[C@@H](NC(=O)OC)C(C)C)[nH]c65)cc3-4)c[nH]2)N(C(=O)[C@H](NC(=O)OC)c2ccccc2)C1` [Velpatasvir] is lower in “% Inhibition” value: 94% for the first, 93% for the second.

Going from `O=C(O)CCCC[C@@H]1SC[C@@H]2NC(=O)N[C@@H]21` [Biotin (Vitamin B7), Biotin] to `Cc1c(O)cccc1C(=O)N[C@@H](CSc1ccccc1)[C@H](O)CN1C[C@H]2CCCC[C@H]2C[C@H]1C(=O)NC(C)(C)C` [Nelfinavir Mesylate], the “% Inhibition” value rises from 91% to 94%.

Compared with `CO[C@H]1C[C@@H]2CC[C@@H](C)[C@@](O)(O2)C(=O)C(=O)N2CCCC[C@H]2C(=O)O[C@H]([C@H](C)C[C@@H]2CC[C@@H](OCCO)[C@H](OC)C2)CC(=O)[C@H](C)/C=C(\C)[C@@H](O)[C@@H](OC)C(=O)[C@H](C)C[C@H](C)/C=C/C=C/C=C/1C` [Everolimus (RAD001), Everolimus], `CO[C@H]1C[C@@H]2CC[C@@H](C)[C@@](O)(O2)C(=O)C(=O)N2CCCC[C@H]2C(=O)O[C@H]([C@H](C)C[C@@H]2CC[C@@H](OC(=O)C(C)(CO)CO)[C@H](OC)C2)CC(=O)[C@H](C)/C=C(\C)[C@@H](O)[C@@H](OC)C(=O)[C@H](C)C[C@H](C)/C=C/C=C/C=C/1C` [Temsirolimus (CCI-779, NSC 683864), Temsirolimus] is higher in “% Inhibition” value: 94% for the first, 96% for the second.

First: CN1CCc2nc(C(=O)N[C@@H]3C[C@@H](C(=O)N(C)C)CC[C@@H]3NC(=O)C(=O)Nc3ccc(Cl)cn3)sc2C1 [Edoxaban]
Second: COc1ccc2cc1Oc1ccc(cc1)C[C@H]1c3c(cc4c(c3Oc3cc5c(cc3OC)CCN(C)[C@@H]5C2)OCO4)CCN1C [Cepharanthine]
The “% Inhibition” value of the first is higher: 95% for the first, 94% for the second.

Compared with `COC(=O)N[C@H](C(=O)N1CCC[C@H]1C(=O)Nc1ccc([C@@H]2CC[C@@H](c3ccc(NC(=O)[C@@H]4CCCN4C(=O)[C@@H](NC(=O)OC)C(C)C)cc3)N2c2ccc(C(C)(C)C)cc2)cc1)C(C)C` [Ombitasvir (ABT-267), Ombitasvir], `CC[C@H](C)C[C@H](C)CCCCCCCCC(=O)N[C@H]1C[C@@H](O)[C@@H](O)NC(=O)[C@@H]2[C@@H](O)CCN2C(=O)[C@H]([C@H](O)CC(N)=O)NC(=O)[C@H]([C@H](O)[C@@H](O)c2ccc(O)cc2)NC(=O)[C@@H]2C[C@@H](O)CN2C(=O)[C@H]([C@@H](C)O)NC1=O` [Pneumocandin B0] ({Tetradecanoyl(10R,12S-Me2)}-[Orn(4R-OH,5R-OH)]T[Hyp][hTyr(3S-OH,4S-OH)][Gln(3R-OH)][Pro(3S-OH)]; lactam 1-C) is higher in “% Inhibition” value: 92% for the first, 98% for the second.

Cefotiam Hexetil Hydrochloride and `CC[C@@]1(O)C(=O)OCc2c1cc1n(c2=O)Cc2cc3cc(O)ccc3nc2-1` [Hydroxycamptothecin] are the same in “% Inhibition” value: 99% for the first, 99% for the second.

Going from `O=C(NC1CCN(CCCCC2(C(=O)NCC(F)(F)F)c3ccccc3-c3ccccc32)CC1)c1ccccc1-c1ccc(C(F)(F)F)cc1` [Lomitapide Mesylate] to `CCCCCOc1ccc(-c2ccc(-c3ccc(C(=O)N[C@H]4C[C@@H](O)[C@@H](O)NC(=O)[C@@H]5[C@@H](O)[C@@H](C)CN5C(=O)[C@H]([C@@H](C)O)NC(=O)[C@H]([C@H](O)[C@@H](O)c5ccc(O)cc5)NC(=O)[C@@H]5C[C@@H](O)CN5C(=O)[C@H]([C@@H](C)O)NC4=O)cc3)cc2)cc1` [Anidulafungin] ({pTerphenylCO(4''-OnC5H11)}-[Orn(4R-OH,5R-OH)]T[Hyp][hTyr(3S-OH,4S-OH)]T[Pro(3S-OH,4S-Me)]; lactam 1-C), the “% Inhibition” value rises from 93% to 99%.

For `CC[C@@]1(O)C(=O)OCc2c1cc1n(c2=O)Cc2c-1nc1ccccc1c2CCNC(C)C` [Belotecan], the “inhibition of spike-ACE2 binding in the screen” value was “did not inhibit”.
`CC[C@@]1(O)C(=O)OCc2c1cc1n(c2=O)Cc2cc3c(CN(C)C)c(O)ccc3nc2-1` [Topotecan] was tested, and the “inhibition of spike-ACE2 binding in the screen” value was “did not inhibit”.

With Ivermectin the “% inhibition in first-round screen” value was 89%.

With `C[C@@H](Oc1cc(-c2cnn(C3CCNCC3)c2)cnc1N)c1c(Cl)ccc(F)c1Cl` [Crizotinib (PF-02341066), Crizotinib] the “% Inhibition, Screen” value was 55%.

Same assay, conditions: read-out: EC50 (corrected)

First: CC[C@H](C)C[C@H](C)CCCCCCCCC(=O)N[C@H]1C[C@@H](O)[C@@H](O)NC(=O)[C@@H]2[C@@H](O)CCN2C(=O)[C@H]([C@H](O)CC(N)=O)NC(=O)[C@H]([C@H](O)[C@@H](O)c2ccc(O)cc2)NC(=O)[C@@H]2C[C@@H](O)CN2C(=O)[C@H]([C@@H](C)O)NC1=O [Pneumocandin B0] ({Tetradecanoyl(10R,12S-Me2)}-[Orn(4R-OH,5R-OH)]T[Hyp][hTyr(3S-OH,4S-OH)][Gln(3R-OH)][Pro(3S-OH)]; lactam 1-C)
Second: Cefotiam Hexetil Hydrochloride
The EC50 of the first is 2-fold higher: 72.8 µM for the first, 37.3 µM for the second. The second is the more potent here.
